Reference: paper PMC5051080, “Safety, pharmacokinetics, and antitumor properties of anlotinib, an oral multi-target tyrosine kinase inhibitor, in patients with advanced refractory solid tumors” (Journal of Hematology & Oncology, 2016)
Read-outs that look alike come from different tables or passages of the source.

Key:
FGFR1-4 = details: especially FGFR2; to a greater extent than sorafenib; preclinical results; cited from earlier work
[1] = test system: tumor cells carrying mutations in PDGFR α, c-Kit, Met, and EGFR; details: preclinical background; cited from earlier work
[2] = Multiple-dose pharmacokinetics in cancer patients; type: in vivo, human
Protocol: In single-dose studies, anlotinib were administered orally at dose of 5, 10, 12, or 16 mg anlotinib/person. Serial blood samples were collected in heparinized tubes before and at 0.5, 1, 2, 4, 8, 11, 24, 48, 72, 96, 120, 144, 168, 192, 216, and 240 h (samples of 144–240 h were collected only in 12 or 16 mg/person dose group) after dosing. In the 10 mg/person dose group, urine was sampled before and 0–2, 2–6, 6–11, 11–24, 24–34, 34–48, 48–58, 58–72, 72–96, and 96–120 h after dosing. In multiple-dose studies, there were two ways of multiple-dose administration. Initially, patients in 5 and 10 mg/person/day groups were treated consecutively for 28 days. […] Concentrations of anlotinib were measured by liquid chromatography/mass spectrometry.
The maximum concentration (C max) and the time taken to achieve C max (T max) were obtained directly from the data with no interpolation. The area under concentration-time curve up to the last measured time point (AUC0 − t) was calculated by the trapezoidal rule. The elimination half-life (t 1/2) was calculated using the relationship 0.693/k. […] The renal clearance (CLR) was calculated by dividing the cumulative amount excreted into urine (Cum.A e − U) by plasma AUC0 − t. Accumulation ratio (R ac) was used to indicate the extent of accumulation during multiple doses of anlotinib capsules and calculated using the following equation: Rac=C24hDay15/C24hDay1, […]

VEGFR2/KDR = test system: VEGFR2/KDR; design: method as in details pending publication elsewhere; details: recombinant enzymes; ref details pending publication elsewhere; cited from earlier work
[3] = rats, cited from earlier work
[4] = tumor-bearing mice; cited from earlier work
[5] = test system: human cytochrome P450 3A4; details: in vitro; read-out: half maximum inhibitory concentration; cited from earlier work
[6] = test system: human tumor xenograft models (SW-620, SK-OV-3, SMMC-7721, Caki-1, U87MG, Calu-3); details: colon, ovarian, liver, renal, glioma, non-small cell lung; during dosing period; cited from earlier work
[7] = dogs; cited from earlier work
[8] = Single-dose pharmacokinetics in cancer patients; type: in vivo, human; details: for AUC(0-t): read-out: AUC0–120h
Protocol: In single-dose studies, anlotinib were administered orally at dose of 5, 10, 12, or 16 mg anlotinib/person. Serial blood samples were collected in heparinized tubes before and at 0.5, 1, 2, 4, 8, 11, 24, 48, 72, 96, 120, 144, 168, 192, 216, and 240 h (samples of 144–240 h were collected only in 12 or 16 mg/person dose group) after dosing. In the 10 mg/person dose group, urine was sampled before and 0–2, 2–6, 6–11, 11–24, 24–34, 34–48, 48–58, 58–72, 72–96, and 96–120 h after dosing. In multiple-dose studies, there were two ways of multiple-dose administration. Initially, patients in 5 and 10 mg/person/day groups were treated consecutively for 28 days. Blood samples were collected 24 h after dosing on days 1, 2, 4, 7, 10, 13, 15, 16, 18, 21, 24, 28, and 29. Later, the other volunteers were given multiple doses of anlotinib at 10, 12, or 16 mg anlotinib/person/day in the 2/1 schedule for two cycles. Blood samples were collected 24 h after dosing on days 1, 4, 7, 10, 13, 15, 18, 22, 29, and 36. The collected blood samples were centrifuged to prepare plasma fractions; the urine samples were weighed after collection. All samples were stored at −70 °C for subsequent analysis. Concentrations of anlotinib were measured by liquid chromatography/mass spectrometry.
The maximum concentration (C max) and the time taken to achieve C max (T max) were obtained directly from the data with no interpolation. The area under concentration-time curve up to the last measured time point (AUC0 − t) was calculated by the trapezoidal rule. The elimination half-life (t 1/2) was calculated using the relationship 0.693/k. The k was estimated by linear regression analysis of the terminal portion of the log concentration-time data. The renal clearance (CLR) was calculated by dividing the cumulative amount excreted into urine (Cum.A e − U) by plasma AUC0 − t. Accumulation ratio (R ac) was used to indicate the extent of accumulation during multiple doses of anlotinib capsules and calculated using the following equation: Rac=C24hDay15/C24hDay1,
where C 24 h(Day1) and C 24 h(Day15) are plasma concentrations of anlotinib at 24 h after dosing on day 1 and day 15, respectively. Plasma pharmacokinetic (PK) parameters were determined using noncompartmental method with a Kinetica software package (version 5.0; Thermo Scientific, Philadelphia, PA).

[9] = test system: patients with advanced refractory solid tumors; assay: Phase I safety and tolerability (DLT, MTD, adverse events NCI-CTCAE 4.0); type: in vivo; details: for dose-limiting toxicity: in vivo
Description: Those patients received escalating doses of anlotinib daily for (1) four consecutive weeks (4/0) or (2) 2-week on/1-week off (2/1). […] If two DLTs were observed during the first cycle in a cohort, dose-escalation was halted and dose continued at a lower level until the MTD (the highest dose level for which the incidence of first-cycle DLT was <33 %) was identified. In the absence of two or more DLTs in a cohort, the dose was escalated in a modified Fibonacci scheme. Treatment cycles were repeated until disease progression, unacceptable toxicity, or withdrawal of consent.
Adverse events are graded into 0–5 according to the National Cancer Institute Common Terminology Criteria for Adverse Events (NCI-CTCAE 4.0). During treatment, blood pressure will be monitored every day. Patients with unresolved adverse reactions at the end of the test needed to be treated and followed until the reactions returned to the grade 1 degree or less, or stable.

[10] = test system: human cytochrome P450 2C9; details: in vitro; read-out: half maximum inhibitory concentration; cited from earlier work
[11] = test system: advanced refractory solid tumors; assay: Tumor response by RECIST 1.1; type: in vivo, human
Protocol: Efficacies were evaluated according to NCI-proposed Response Evaluation Criteria In Solid Tumors (RECIST 1.1). The tumor will be assessed every two cycles including tumor-related symptoms and physical and imaging examination (CT or MRI) of superficial lesions. Physical and imaging examination of tumor lesions should be done at least four weeks after the first effect evaluation in patients with complete remission (CR), partial remission (PR), and stable disease (SD) to confirm efficacy.

VEGFR3 = test system: VEGFR3; design: method as in details pending publication elsewhere; details: recombinant enzymes; ref details pending publication elsewhere; cited from earlier work
[12] = human, plasma, single oral dose 5 mg/person (n = 1)
[13] = human, plasma, single oral dose 10 mg/person (n = 4)
[14] = human, plasma, single oral dose 12 mg/person (n = 11)
[15] = human, plasma, single oral dose 16 mg/person (n = 4)
[16] = human, plasma, single oral dose 5-16 mg/person, range
[17] = 12 mg/day 2/1 schedule, 20 assessable patients

COc1cc2c(Oc3ccc4[nH]c(C)cc4c3F)ccnc2cc1OCC1(N)CC1 [anlotinib]
inactivation of FGFR1-4 (FGFR1-4): significantly inactivated
antitumor activity against tumor cells carrying mutations [1]: showed antitumor activity
day at which maximum plasma concentration was reached ([2]; 2/1 schedule, 2-week dosing): 14 days
accumulation ratio R ac (C24h Day15/C24h Day1) ([2]; multiple oral doses, mean): 12 ± 7
potency relative to sorafenib (VEGFR2/KDR): ~500 times
potency relative to sunitinib (VEGFR2/KDR): approximately 20 times
oral bioavailability ([3]; oral): 23–45%
exposure level in lung, kidneys, liver, heart compared with plasma [3]: significant higher
exposure level in the brain compared with plasma level [3]: comparable
concentration in tumor tissue relative to plasma [4]: 2.4–2.6 times
IC50 [5]: 110 nM
activity against human tumor xenograft models [6]: broad activity
oral bioavailability [7]: 47–74%
half-life ([8]; human, plasma, oral, mean over doses, dose-independent): 4 ± 0.708 days
AUC(0-inf) [8, 12]: 687 ng·h/mL
Cmax [8, 12]: 5.8 ng/mL
Tmax [8, 12]: 11 h
half-life [8, 12]: 4.25 days
AUC(0-t) [8, 12]: 411 ng·h/mL
AUC(0-inf) [8, 13]: 562 ± 328 ng·h/mL
Cmax [8, 13]: 5.8 ± 2.8 ng/mL
Tmax [8, 13]: 6 ± 4.4 h
half-life [8, 13]: 3.96 ± 0.917 days
AUC(0-t) [8, 13]: 318 ± 133 ng·h/mL
AUC(0-inf) [8, 14]: 1070 ± 263 ng·h/mL
Cmax [8, 14]: 10.5 ± 2.9 ng/mL
Tmax [8, 14]: 7.3 ± 3.3 h
half-life [8, 14]: 4.83 ± 1.96 days
AUC(0-t) [8, 14]: 617 ± 194 ng·h/mL
AUC(0-inf) [8, 15]: 1580 ± 470 ng·h/mL
Cmax [8, 15]: 15.8 ± 3.2 ng/mL
Tmax [8, 15]: 11 ± 8.9 h
half-life [8, 15]: 4.08 ± 0.625 days
AUC(0-t) [8, 15]: 894 ± 305 ng·h/mL
MRT [8, 16]: 124 to 167 h
Tmax [8, 16]: 4 to 11 h
half-life [8, 16]: 2.67 to 5.67 days
CL renal ([8]; human, urine and plasma, single oral dose, urine sampled in 10 mg/person group, read-out: renal clearance CLR (converted)): 4 mL/h/kg
dose proportionality of AUC0–120h, Conclusion ([8]; single oral dose): Inconclusive
dose proportionality of AUC0–∞, Conclusion ([8]; single oral dose): Inconclusive
dose proportionality of C max, Conclusion ([8]; single oral dose): Inconclusive
fraction of the dose excreted into urine (f e − U) ([8]; single oral dose, urine sampled in 10 mg/person group): ~ 0.9%
dose-limiting toxicity ([9]; human): grade 3 hypertension and grade 3 fatigue
dose-limiting toxicity ([9]; human, 4 weeks): grade 3 hypertension
dose-limiting toxicity [9]: no DLT
maximum tolerated dose ([9]; once daily, 2/1 schedule): 12 mg
IC50 [10]: 250 nM
patients with tumor burden shrinkage ([11]; 12 mg once daily): More than 60%
partial response (PR) [11, 17]: 15%
partial response (PR), patients [11, 17]: 3
patients with tumor burden shrinkage among SD [11, 17]: 12
progressive disease (PD) [11, 17]: 15%
progressive disease (PD), patients [11, 17]: 3
stable disease (SD), patients [11, 17]: 14
potency relative to sorafenib (VEGFR3): ~500 times
potency relative to sunitinib (VEGFR3): approximately 20 times
